Values after ≈ are worked out from the molar mass of the structure shown.
Legend:
[1] = Cyclic voltammetry, electrochemical characterization of the antioxidant capacity; type: physicochemical; conditions: for Ep (peak potential) / Ip (peak intensity) / ΔEp (difference between anodic and cathodic peak): glassy carbon electrode, ± SD of three measurements; for Ep (peak potential): 20 mM acetate buffer pH 3.6, vs Ag|AgCl|KCl (3M); for Ip (peak intensity) / ΔEp (difference between anodic and cathodic peak): 20 mM acetate buffer pH 3.6
Procedure: Electrochemical measurements were carried out on an Autolab PGSTAT 12 potentiostat from Metrohm (Utrecht, The Netherlands), employing a glassy carbon (GC) disk working electrode. The GC electrode was polished after each measurement using a 0.1 and 0.05 µm alumina/water slurry until a shiny mirror-like finish was achieved, and washed with ultrapure water. Electrodes were modified with 1 mM solutions of each compound (L, G1, and G2) in MeOH; 5 µL drops were drop-cast in the electrode and allowed to dry before the measurements. Electrochemical measurements were performed in a 20 mM acetate buffer solution (pH 3.6), employing an Ag|AgCl|KCl (3M) reference electrode and a platinum wire as a counterelectrode.
Electrochemical characterization of the antioxidant capacity: The electrochemical behavior of the synthesized polyphenolic dendrimers (1–6), together with the free polyphenol (L), has been investigated using cyclic voltammetry (CV). CV is a powerful electrochemical technique that can be employed to study the ability of a molecule to undergo electron transfer and to estimate the antioxidant activity through the peak potential (Ep), intensity (ip), and reversibility (ΔEp). A lowering in the Ep or ΔEp and an increase in the ip are indicative of higher antioxidant activity.

[2] = system: Escherichia coli (CECT 515); assay: In vitro antibacterial activity (ISO 20776-1:2006), turbidity at 625 nm; type: cell-based; conditions: CECT515, E. coli, 24 h at 37 °C, 1% DMSO, tested up to 16 ppm, read-out: MIC50
Procedure: (§1) In vitro antibacterial analysis of dendritic polyphenols was performed following the international standard method ISO 20776-1:2006 [22]. The antibacterial activity was assayed in two different bacteria, Escherichia coli (CECT 515) and Staphylococcus aureus (CECT 240), both obtained from the Spanish Type Culture Collection in lyophilized form. The biocide solutions were prepared following the EUCAST (European Committee for Antimicrobial Susceptibility Testing) protocol for hydrophobic compounds. For this purpose, stock solutions in DMSO of each compound were made and then, subsequent dilutions in Mueller-Hinton […] (Scharlau, ref. 02–136) were developed to obtain the testing concentrations (from 0.0312 ppm to 16 ppm) with 1% of DMSO. The assay was carried out in 96-well plates, with two different wells for each concentration and with different controls (biocide, inoculum, culture medium, and DMSO). The bacteria were inoculated at a concentration of 10^5 CFU/mL in wells. After 24 h of incubation with biocides at 37 °C, the increase of turbidity at 625 nm was determined using an Ultra Microplate reader (BIO-TECK Instruments, model ELx808). MIC50 and MIC80 values were the concentrations of the compounds with an optical density of 50% and 20% compared to nontreated bacteria.

[3] = system: Staphylococcus aureus (CECT 240); assay: as above; type: cell-based; conditions: CECT240, S. aureus, 24 h at 37 °C, 1% DMSO, tested up to 16 ppm; for IC50: read-out: MIC50; for IC80: read-out: MIC80
Procedure: as §1

[4] = Cell viability by MTT assay; type: cell-based, human; conditions: human; for viability at 24 h, 16 ppm: HFF-1, 16 ppm; for viability at 24 h, 8 ppm: HFF-1, 8 ppm
Procedure: (§2) HFF-1 cells were grown routinely in DMEM (Dulbecco’s modified Eagle’s medium, Sigma Aldrich, St. Louis, MO, USA, ref. D6429) supplemented with 10% fetal bovine serum (FBS, Sigma Aldrich, ref. F7524) and 1% penicillin/streptomycin/amphotericin B (Sigma Aldrich, ref. A5955) at 37 °C and 5% CO2. Cells were seeded in 96-well plates (Nunclon Delta Surface, Thermo Fischer Scientific, Waltham, MA, USA; 8 × 10^3 cells per well) and grown in a complete DMEM medium for 24 h. Cell viability was determined by MTT assay (MTT, 3-(4,5-dimethyl-2-thiazolyl)-2,5-diphenyl-2H-tetrazolium bromide). A stock compound solution was prepared in DMSO. Then, dilutions in cell culture were made to obtain the final concentrations with 1% of DMSO per well. […] After incubation, MTT was added at a concentration of 5 mg/mL and plates were incubated for 3 h. Finally, the culture medium was removed and the purple formazan crystals formed by the mitochondrial dehydrogenase and reductase activity of vital cells were dissolved in DMSO. The optical density, directly proportional to the number of surviving cells, was quantified at 570/630 nm in a spectrophotometer BioTEK 800 (Izasa). The assay was carried out in triplicate, with eight different wells for each concentration and with different controls (culture medium and DMSO).

[5] = DPPH free radical-scavenging assay; conditions: stated as the same activity as the cited polyether dendrimers
Procedure: This method involves the radical concentration reduction by the antioxidant agent, which entails absorbance reduction and increasing compound concentration. When antioxidants are mixed with DPPH solution, the color turns from purple to yellow, with the maximum absorption at 530 nm. The ability of dendritic polyphenols to scavenge the DPPH radical was evaluated. An aliquot of 100 µL of different stock sample concentrations in the range of 0.01 and 100 µM in methanol was added to a volume of 900 µL of a DPPH stock solution (0.12 mM) in a DMSO/H2O (1:1) mixture. The mixture was shaken, kept in the dark at room temperature, and recorded at 530 nm every 5 min up to 30 min. The blank was constituted by methanol instead of the sample.
The IC50 of DPPH scavenging activity and EC50 of FRAP capacities were calculated following similar protocols. Firstly, for each concentration, it was necessary to calculate the DPPH remnant, as well as the Fe(II) that formed, through the following equations: 1. DPPHREM(%)=(As/Ac)×100 2. Fe(II)FOR(%)=(As−Ac/Ac)×100 where REM = remnant, FOR = formed, As = Sample absorbance, and Ac = Control absorbance. The graphical representation of the percentage of the remnant or formed reagent versus the −log[X] […] The results are expressed as mean ± SEM and are representative of at least three independent experiments.

HFF-1 cells = assay: Cell viability by MTT assay; type: cell-based, human; conditions: HFF-1, 16 ppm, 24 h
Procedure: as §2

[6] = G2 compared to free polyphenol L

With `O=C(O)/C=C/c1ccc(O)c(O)c1` [Caffeic L, reference compound] the “Ep (peak potential)” value [1] was 0.263 ± 0.005 V, the “Ip (peak intensity)” value [1] was 2.91 ± 0.07 µA and the “ΔEp (difference between anodic and cathodic peak)” value [1] was 0.205 ± 0.002 V. It also gave an IC50 [2] of over 16 µg/mL, an IC50 [3] of over 16 µg/mL and an IC80 [3] of over 16 µg/mL.

For `COc1cc(C=CC(=O)O)ccc1O` [Ferulic L, 3-(4-hydroxy-3-methoxyphenyl)-2-propenoic acid, reference compound], the “Ep (peak potential)” value [1] was 0.686 ± 0.009 V, the “Ip (peak intensity)” value [1] was 3.70 ± 0.08 µA and the IC50 [2] was over 16 µg/mL. The IC50 [3] was over 16 µg/mL and the IC80 [3] was over 16 µg/mL.

In the case of `COc1cc(/C=C/C(=O)NCCC[Si](C)(C)CCC[Si](CCC[Si](C)(C)CCCNC(=O)/C=C/c2ccc(O)c(OC)c2)(CCC[Si](C)(C)CCCNC(=O)/C=C/c2ccc(O)c(OC)c2)CCC[Si](C)(C)CCCNC(=O)/C=C/c2ccc(O)c(OC)c2)ccc1O` [G1 (1), G1-[Si(CH2)3NH(CO)CH=CHCH2Ph(OH)(OCH3))]4], the “Ep (peak potential)” value [1] is reported as 0.637 ± 0.002 V, the “Ip (peak intensity)” value [1] is reported as 0.75 ± 0.06 µA and the IC50 [2] is reported as over 16 µg/mL. It also gave an IC50 [3] of over 16 µg/mL, an IC80 [3] of over 16 µg/mL and a viability at 24 h, 16 ppm [4] of 95.4 ± 6.6%.

With `C[Si](C)(CCCNC(=O)/C=C/c1ccc(O)c(O)c1)CCC[Si](CCC[Si](C)(C)CCCNC(=O)/C=C/c1ccc(O)c(O)c1)(CCC[Si](C)(C)CCCNC(=O)/C=C/c1ccc(O)c(O)c1)CCC[Si](C)(C)CCCNC(=O)/C=C/c1ccc(O)c(O)c1` [G1 (2), G1-[Si(CH2)3NH(CO)CH=CHCH2Ph(OH)2)]4] the “Ep (peak potential)” value [1] was 0.276 ± 0.009 V, the “Ip (peak intensity)” value [1] was 1.39 ± 0.04 µA and the “ΔEp (difference between anodic and cathodic peak)” value [1] was 0.188 ± 0.006 V. The IC50 [2] was over 16 µg/mL, the IC50 [3] was 8 µg/mL (≈ 6.11 µM) and the IC80 [3] was 16 µg/mL (≈ 12.2 µM). For the same compound, the viability at 24 h, 8 ppm [4] was 98.8 ± 1.7%, the viability at 24 h, 16 ppm [4] was 100% and the IC50 [5] was about 5 µM.

For `C[Si](C)(CCCNC(=O)c1cc(O)c(O)c(O)c1)CCC[Si](CCC[Si](C)(C)CCCNC(=O)c1cc(O)c(O)c(O)c1)(CCC[Si](C)(C)CCCNC(=O)c1cc(O)c(O)c(O)c1)CCC[Si](C)(C)CCCNC(=O)c1cc(O)c(O)c(O)c1` [G1 (3), G1-[Si(CH2)3NH(CO)Ph(OH)3]4], the “Ep (peak potential)” value [1] was 0.410 ± 0.008 V, the “Ip (peak intensity)” value [1] was 4.12 ± 0.07 µA and the IC50 [2] was 16 µg/mL (≈ 12.6 µM). For the same compound, the IC50 [3] was 4 µg/mL (≈ 3.15 µM), the IC80 [3] was 8 µg/mL (≈ 6.3 µM) and the viability at 24 h, 4 ppm ([4]; HFF-1, 4 ppm) was 84.8 ± 7.5%. For the same compound, the viability at 24 h, 8 ppm [4] was 99.1 ± 1%.

For `COc1cc(/C=C/C(=O)NCCC[Si](C)(C)CCC[Si](C)(CCC[Si](C)(C)CCCNC(=O)/C=C/c2ccc(O)c(OC)c2)CCC[Si](CCC[Si](C)(CCC[Si](C)(C)CCCNC(=O)/C=C/c2ccc(O)c(OC)c2)CCC[Si](C)(C)CCCNC(=O)/C=C/c2ccc(O)c(OC)c2)(CCC[Si](C)(CCC[Si](C)(C)CCCNC(=O)/C=C/c2ccc(O)c(OC)c2)CCC[Si](C)(C)CCCNC(=O)/C=C/c2ccc(O)c(OC)c2)CCC[Si](C)(CCC[Si](C)(C)CCCNC(=O)/C=C/c2ccc(O)c(OC)c2)CCC[Si](C)(C)CCCNC(=O)/C=C/c2ccc(O)c(OC)c2)ccc1O` [G2 (4), G2-[Si(CH2)3NH(CO)CH=CHCH2Ph(OH)(OCH3))]8], the “decrease in the Ep compared to L” value [1, 6] was 73 mV, the “Ep (peak potential)” value [1] was 0.613 ± 0.008 V and the “Ip (peak intensity)” value [1] was 0.56 ± 0.02 µA. The IC50 [2] was over 16 µg/mL, the IC50 [3] was over 16 µg/mL and the IC80 [3] was over 16 µg/mL. The “% Viability” value (HFF-1 cells) was 92.9 ± 7.4%.

For `C[Si](C)(CCCNC(=O)/C=C/c1ccc(O)c(O)c1)CCC[Si](C)(CCC[Si](C)(C)CCCNC(=O)/C=C/c1ccc(O)c(O)c1)CCC[Si](CCC[Si](C)(CCC[Si](C)(C)CCCNC(=O)/C=C/c1ccc(O)c(O)c1)CCC[Si](C)(C)CCCNC(=O)/C=C/c1ccc(O)c(O)c1)(CCC[Si](C)(CCC[Si](C)(C)CCCNC(=O)/C=C/c1ccc(O)c(O)c1)CCC[Si](C)(C)CCCNC(=O)/C=C/c1ccc(O)c(O)c1)CCC[Si](C)(CCC[Si](C)(C)CCCNC(=O)/C=C/c1ccc(O)c(O)c1)CCC[Si](C)(C)CCCNC(=O)/C=C/c1ccc(O)c(O)c1` [G2 (5), G2-[Si(CH2)3NH(CO)CH=CHCH2Ph(OH)2)]8], the “decrease in ΔEp compared to L” value [1, 6] was 85 mV, the “Ep (peak potential)” value [1] was 0.302 ± 0.010 V and the “Ip (peak intensity)” value [1] was 0.143 ± 0.09 µA. For the same compound, the “ΔEp (difference between anodic and cathodic peak)” value [1] was 0.120 ± 0.009 V, the IC50 [2] was over 16 µg/mL and the IC50 [3] was over 16 µg/mL. The IC80 [3] was over 16 µg/mL and the “% Viability” value (HFF-1 cells) was 100.0 ± 0.0%.

With `O=C(O)c1cc(O)c(O)c(O)c1` [Gallic L, 3,4,5-trihydroxybenzoic acid, reference compound] the “Ep (peak potential)” value [1] was 0.477 ± 0.001 V, the “Ip (peak intensity)” value [1] was 3.87 ± 0.08 µA and the IC50 [2] was over 16 µg/mL. For the same compound, the IC50 [3] was over 16 µg/mL and the IC80 [3] was over 16 µg/mL.
